Data reported in patent US6818215B2, “Antibodies to senescent cell-derived inhibiters of DNA synthesis” (priority 1991, dated 2004).

How the values were obtained:
c-fos promoter = test: CAT reporter transcription assay, fos-CAT; assay type: cell-based; settings: SDI-1 2.0 μg
Procedure: (§1) The effect of the human SDI-1 on transcription driven by two E2F-responsive promoters was determined. Proliferating A31 cells were transfected with an SDI-1 expression vector in which the SDI-1 cDNA was driven by the strong constitutive cytomegalovirus early promoter (CMV) together with a reporter vector in which the chloramphenicol acetyltransferase (CAT) gene was driven by either the hamster dihydrofolate reductase (DHFR) promoter or the human cdc2 promoter (cdc2-CAT). A31 cells are Balb/c murine 3T3 fibroblasts whose origin and growth properties have been described (Lu, K. et al., Molec. Cell. Biol. 9:3411-3417 (1989); Dimri, G. P et al., J. Biol. Chem. 269:16180-16186 (1994), herein incorporated by reference). Cells were transfected with 2 μg of expression vectors, reporters vectors (for transactivation) and the CMV-β-gal identification/normalization vector using Lipofectamine (Gibco-BRL), as described by Dimri, G. P et al. (J. Biol. Chem. 269:16180-16186 (1994), herein incorporated by reference), The vector backbone was added to the mixture as needed to equalize the amount of transfected DNA. Seventy-two hours later, the cells were lysed and assayed for chloramphenicol acetyl transferase (CAT) and β-galactosidase activity. Both DHFR and cdc2 were expressed by proliferating cells, largely due to E2F-mediated transcription that is dependent on E2F binding sites in the 5′ regulatory regions of these genes (Slansky, J. E. et al., Molec. Cell. Biol. 13:1610-1618 (1993); Dalton, S., EMBO J. 11:1797-1804 (1992)).
In sharp contrast to the response of the DHFR and cdc2 promoters, CMV-SDI-1 had little or no effect on reporter activity driven by either the SV 40 early promoter (SV-CAT or the c-fos promoter (fos-CAT) (Table 16). Neither the SV40 early genes nor c-fos has been reported to be E2F-responsive.

[1] = test system: Human umbilical vein endothelial cells; test: GST-SDI-1 fusion protein, thymidine incorporation; assay type: cell-based
Procedure: As indicated above, SDI-1 has the capacity to suppress the proliferation of tumor cells. […] In the experiment, 5×10^3 cells were plated overnight at 37° C. (only for adherent cells) and then incubated with the SDI fusion protein. After 48 hours at 37° C., cells were pulsed with thymidine for 24 hours and then harvested. The results of this experiment are shown in Table 8; the thymidine incorporation by untreated cells was expressed as 100%. all determinations were made in quadruplicate.

A31 cells = test: DNA synthesis in transfected (β-galactosidase positive) cells, radiolabeled nuclei; assay type: cell-based, murine
Procedure: as §1
These mutants included a naturally occurring SDI-1 variant (p21pm) in which the serine at amino acid 31 was replaced by an arginine. This polymorphism has been detected in approximately 10% of normal human cells thus far examined, and appears to result in a slight reduction in the antiproliferative properties of SDI-1 (Table 17). A SDI-1 expression vector for this allele (CMV-p21pm) was compared with CMV-SDI-1 for ability to inhibit DNA synthesis and E2F-mediated transactivation in proliferating A31 cells. […]

[2] = test system: SV40 early promoter with three E2F binding sites (SV/E2F); test: CAT reporter transcription assay, SV/E2F-CAT; assay type: cell-based; settings: A31 cells
Procedure: as §1, with “Seventy-two hours later, the cells were lysed and assayed for chloramphenicol acetyl transferase (CAT) and β-galactosidase activity. Both DHFR and cdc2 were expressed by proliferating cells, largely due to E2F-mediated transcription that is dependent on E2F binding sites in the 5′ regulatory regions of these genes (Slansky, J. E. et al., Molec. Cell. Biol. 13:1610-1618 (1993); Dalton, S., EMBO J. 11:1797-1804 (1992)).” left out
To more critically ascertain whether the inhibition of transcription by SDI-1 was E2F-dependent, three E2F binding sites were inserted into the SV40 early promoter and the effect of CMV-SDI-1 on CAT activity driven by this modified promoter (SV/E2F) was determined. […]

human cdc2 promoter = test: CAT reporter transcription assay, cdc2-CAT; assay type: cell-based
Procedure: as §1
The SDI-1 expression vector, CMV-SDI-1, but not the control vector, suppressed CAT activity driven by either the DHFR or cdc2 promoter (Table 16). CMV-SDI-1 was maximally inhibitory at above 2 μg of DNA under the assay conditions used. CAT activity in Table 16 is reported in counts per minute, normalized to the β-galactosidase activity. At this concentration, CMV-SDI-1 inhibited the DHFR promoter, which contains two strong E2F binding sites (Slansky, J. E. et al., Molec. Cell. Biol. 13:1610-1618 (1993)), somewhat more strongly than the cdc2 promoter, which contains a single E2F binding site (Dalton, S., EMBO J. 11:1797-1804 (1992)) (50-70% inhibition vs 40-50% inhibition). This difference in sensitivity is consistent with the finding that the DHFR promoter is somewhat more sensitive than the cdc2 promoter to stimulation by E2F1, a component of E2F (Dimri, G. P et al., J. Biol. Chem. 269:16180-16186 (1994)). At the concentrations used here, CMV-SDI-1 inhibited DHFR-CAT and cdc2-CAT expression to approximately the same extent that it inhibited DNA replication.

Substance: SDI-1: senescent cell derived inhibitor of DNA synthesis, 164 amino acid protein, SEQ ID NO:2
- % Activity (c-fos promoter): 96%
- % Inhibition (c-fos promoter): 4%
- Normalized CAT Activity (c-fos promoter): 16273 counts per minute
- Relative Cell (% of Control) ([1]; 30 μg/ml): 5 ± 1 % of Control
- Relative Cell (% of Control) ([1]; 50 μg/ml): 2 ± 1 % of Control
- inhibition (antiproliferative effect) (A31 cells; A31 cells): 65-75%
- DNA Synthesis % LN (A31 cells; percentage of transfected cells with radiolabeled nuclei): 17%
- DNA Synthesis % Inhibition (A31 cells; proliferating A31 cells): 75%
- Transcription (Normalized) % Activity [2]: 50%
- Transcription (Normalized) % Inhibition [2]: 50%
- Transcription (Normalized) % Activity (human cdc2 promoter; A31 cells (Table 17)): 52%
- Transcription (Normalized) % Inhibition (human cdc2 promoter; A31 cells (Table 17)): 48%
- % Activity (human cdc2 promoter; SDI-1 1.0 μg): 50%
- % Inhibition (human cdc2 promoter; SDI-1 1.0 μg): 50%
- Normalized CAT Activity (human cdc2 promoter; SDI-1 1.0 μg): 1664 counts per minute
- % Activity (human cdc2 promoter; SDI-1 2.0 μg): 60%
- % Inhibition (human cdc2 promoter; SDI-1 2.0 μg): 40%
- Normalized CAT Activity (human cdc2 promoter; SDI-1 2.0 μg): 2000 counts per minute
- % Activity (human cdc2 promoter; SDI-1 4.0 μg): 61%
- % Inhibition (human cdc2 promoter; SDI-1 4.0 μg): 39%
- Normalized CAT Activity (human cdc2 promoter; SDI-1 4.0 μg): 2008 counts per minute
